Results taken from patent US5371102A, “Compositions and methods of inhibiting thyroid activity” (priority 1993, dated 1994).

Experiments:
LPX [1] = molecular target: T1, LPX (Bos taurus, UniProt P80025); test: LPX-mediated covalent binding of labelled thiocarbamides to LPX; parameters: species or system bovine; settings: +H2O2 vs. +H2O2 +KI; 14C- and 35S-labelled
T1 construct: purchased Sigma Chemical Company
Description: (§1) Materials used in the examples below were obtained from the following sources. Bovine LPX, bovine liver catalase, glucose oxidase, 30% hydrogen peroxide, glucose, guaiacol, ABTS and deuterium oxide were purchased from Sigma Chemical Company. Selenium dioxide, MBI ^13 CH3 I and PBA were purchased from Aldrich Chemical Company and PBA was purified as previously described by Fieset et al., Reagents for Organic Synthesis, Vol. I, pp.135-139, John Wiley and Sons, N.Y. (1967). LPX purity was checked by PAGE, as described by Doerge, D.R., et al. in, Biochem. Pharmacol., Vol.36, pp.972-974 (1986). TPX was purified from hog thyroids obtained from a local slaughterhouse by published procedures. Doerge & Takazowa, Chemical Research in Toxicology, Vol. 3, pp. 98-101 (1990). TPX purity was determined by LC and its concentration determined spectophotometrically. Hydroperoxide concentrations were determined by iodometric titration, as described by Kolthoff, et al., in "Quantitative Chemical Analysis", Macmillan, London, pp.842-860 (1969). MMBI, and BI were synthesized by published procedures as described by Doerge, D.R., Biochem, Vol. 27, pp. 3697-3700 (1988) and were recrystallized from aqueous ethanol. MeBI was purified by distillation and DMeBI^+ was synthesized and purified by recrystallization from ethyl acetate/methanol. 1-^13 C-MMBI was synthesized from ^13 CH3 I according to the procedure disclosed by Doerge, D.R., in, J. Lab. Comp. and Radiopharm., Vol.25, pp.985-990 (1988). PPHP and PPA were prepared, purified and analyzed as previously described by Doerge, Biochem, Vol.27, p.11 (1988). The methyl ester of 1-methyl-benzimidazole-2-sulfinic acid was prepared by addition of hydrogen peroxide (5 equivalents of a 10 M solution) to MMBI (0.1 M) in methanol. The products, MeBI and the ester, were obtained following preparative TLC on silica (Uniplate, Analtech Co., Newark, DL) using 5% methanol/chloroform as eluant.
LPX-mediated covalent binding of ^14 C- and ^35 S-labelled thiocarbamides to LPX under iodide-dependent and -independent conditions was measured.

[2] = kinetics of thione oxygenation by hydrogen peroxide/TFA; format: physicochemical; settings: thione 25 μM, H2O2 34 mM, TFA 163 mM in methanol, 25° C.; relative to DMMBI
Method: The kinetics of thione oxygenation were determined for MBI, MMBI and DMMBI. Oxygenation by hydrogen peroxide/TFA was measured spectrophotometrically (305 nm) at 25° C. by addition of thione (final concentration 25 μM) to hydrogen peroxide (34 mM) and TFA (163 mM) in methanol.

LPX [3] = molecular target: T1, LPX; test: LPX suicide inactivation kinetics; format: biochemical, bovine; settings: presence of hydrogen peroxide
Description: as §1
Inhibition of LPX activity by thiones was determined from the kinetics of iodide ion, guaiacol or ABTS oxidation assays conducted at 25° C. Kinetic parameters of suicide inactivation were determined as previously described. Doerge, Biochem. Vol.27, pp.3697-3700 (1988).

TPX = molecular target: T2, TPX (Sus scrofa, UniProt P09933); test: TPX inactivation; format: biochemical, hog
T2 sequence (P09933 15-926): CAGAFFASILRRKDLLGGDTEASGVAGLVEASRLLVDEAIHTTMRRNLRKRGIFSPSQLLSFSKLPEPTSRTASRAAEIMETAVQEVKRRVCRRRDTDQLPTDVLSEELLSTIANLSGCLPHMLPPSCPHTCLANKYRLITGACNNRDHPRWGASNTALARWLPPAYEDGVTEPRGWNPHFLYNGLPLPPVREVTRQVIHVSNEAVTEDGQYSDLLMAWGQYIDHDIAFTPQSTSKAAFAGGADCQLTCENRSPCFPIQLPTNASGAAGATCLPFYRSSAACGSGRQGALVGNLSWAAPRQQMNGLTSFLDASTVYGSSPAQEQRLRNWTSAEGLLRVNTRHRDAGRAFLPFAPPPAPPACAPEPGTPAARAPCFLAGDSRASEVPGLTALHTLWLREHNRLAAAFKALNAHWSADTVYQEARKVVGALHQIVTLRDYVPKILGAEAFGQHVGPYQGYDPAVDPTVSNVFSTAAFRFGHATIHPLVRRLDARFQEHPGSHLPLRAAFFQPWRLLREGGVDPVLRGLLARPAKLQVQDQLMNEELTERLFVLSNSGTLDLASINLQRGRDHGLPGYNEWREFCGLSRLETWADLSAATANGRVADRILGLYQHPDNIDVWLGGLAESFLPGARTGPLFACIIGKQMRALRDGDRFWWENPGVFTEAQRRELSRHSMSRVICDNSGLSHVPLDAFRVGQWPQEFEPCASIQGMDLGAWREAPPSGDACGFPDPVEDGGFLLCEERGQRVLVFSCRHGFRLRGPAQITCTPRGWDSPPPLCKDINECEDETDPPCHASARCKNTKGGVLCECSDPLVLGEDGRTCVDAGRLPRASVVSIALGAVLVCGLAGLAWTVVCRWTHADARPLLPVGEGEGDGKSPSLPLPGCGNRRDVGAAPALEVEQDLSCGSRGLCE
Description: as §1
DMMBI was synthesized according to a published method. Duffin et al., J. Chem. Soc., Part II, pp.364-365 (1956). Samples including TPX, H2 O2, and I^- were incubated with and without DMMBI. Triiodide formation was observed spectrophotometrically with respect to time.

covalent binding to LPX (LPX [1]): no binding over unstimulated controls
relative rate of oxygenation [2]: 1
TPX inactivation (TPX; 100 μM, 1 minute incubation): does not inactivate TPX
TPX inactivation (TPX; presence of hydrogen peroxide): does not inactivate LPX or TPX
SMILES: Cn1c(=S)n(C)c2ccccc21 [DMMBI, 1,3-dimethylbenzimidazole-2-thione]
LPX inactivation / loss of LPX activity (LPX [3]): does not inactivate LPX or TPX
